Patent publication US20260092061A1, “COMPOUNDS FOR TARGETED PROTEIN DEGRADATION” (Amphista Therapeutics Limited, priority 2022, published 2026)

Target: T1, BRD9 (Homo sapiens, UniProt Q9H8M2)
T1 sequence (Q9H8M2 1-597): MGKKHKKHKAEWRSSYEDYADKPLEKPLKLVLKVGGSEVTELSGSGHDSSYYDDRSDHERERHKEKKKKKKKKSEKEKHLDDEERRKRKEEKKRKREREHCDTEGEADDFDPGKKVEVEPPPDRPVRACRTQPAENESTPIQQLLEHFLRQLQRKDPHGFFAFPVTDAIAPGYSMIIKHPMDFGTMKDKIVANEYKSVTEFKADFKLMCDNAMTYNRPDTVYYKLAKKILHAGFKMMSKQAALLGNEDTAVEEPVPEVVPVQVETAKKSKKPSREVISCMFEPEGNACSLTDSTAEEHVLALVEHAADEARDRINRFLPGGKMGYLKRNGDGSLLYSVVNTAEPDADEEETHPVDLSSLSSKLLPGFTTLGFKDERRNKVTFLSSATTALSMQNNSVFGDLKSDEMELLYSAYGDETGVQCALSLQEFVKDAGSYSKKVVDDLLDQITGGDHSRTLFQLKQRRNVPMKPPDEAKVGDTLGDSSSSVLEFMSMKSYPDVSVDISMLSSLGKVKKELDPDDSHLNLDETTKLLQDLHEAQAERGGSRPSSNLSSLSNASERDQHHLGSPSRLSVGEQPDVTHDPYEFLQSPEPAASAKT
Test: Degradation of BRD9 (IF), immunofluorescence in MV4-11 cells, 24 hours (Assay Protocol 2)
Assay type: cell-based
Set-up: A suspension of MV4-11 cells (ATCC CRL-9591) was prepared; host or cells: MV4-11
Conditions: BRD9 degradation; for DC50: Assay protocol 2, read-out: DC50; for Dmax: MV4-11, Assay protocol 2, read-out: Dmax
Summary of the method: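 MV4-11 cells treated with compound 24 h at 37° C., then fixed, permeabilised and immunostained for BRD9 (anti-BRD9 E4Q3F, Alexa 647 secondary, Hoechst counterstain). High-content imaging quantified nuclear BRD9 signal; % BRD9 remaining normalised to DMSO and 100 nM CFT-8634 controls.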

DC50 [nM]	Dmax [%]	Structure (SMILES)
1.25 to 10	70 to 75	COc1cc(-c2cn(C)c(=O)c(C)c2C)cc(OC)c1CN1CCN(Cc2ccc3c(c2)[C@@H](C)N(C(=O)/C(C#N)=C/C(C)(C)CN2CCOCC2)CC3)C2(CC2)C1 (single isomer, unassigned) [Compound C40, (E/Z)-2-(7-((7-(2,6-dimethoxy-4-(1,4,5-trimethyl-6-oxo-1,6-dihydropyridin-3-yl)benzyl)-4,7-diazaspiro[2.5]octan-4-yl)methyl)-1-methyl-1,2,3,4-tetrahydroisoquinoline-2-carbonyl)-4,4-dimethyl-5-morpholinopent-2-enenitrile]
1.25 to 10	> 75	COc1cc(-c2cn(C)c(=O)c(C)c2C)cc(OC)c1CN1CCN(Cc2ccc3c(c2)[C@@H](C)N(C(=O)/C(C#N)=C/C(C)(C)CO)CC3)C2(CC2)C1 (single isomer, unassigned) [Compound C41, (E/Z)-2-(7-((7-(2,6-dimethoxy-4-(1,4,5-trimethyl-6-oxo-1,6-dihydropyridin-3-yl)benzyl)-4,7-diazaspiro[2.5]octan-4-yl)methyl)-1-methyl-1,2,3,4-tetrahydroisoquinoline-2-carbonyl)-5-hydroxy-4,4-dimethylpent-2-enenitrile]
1.25 to 10	70 to 75	COc1cc(-c2cn(C)c(=O)c(C)c2C)cc(OC)c1CN1CC(N(C)c2ccc3c(c2)[C@H](C)N(C(=O)/C(C#N)=C/C(C)(C)C)CC3)C1 (single isomer, unassigned) [Compound C44]
10 to 25	40 to 70	COc1cc(-c2cn(C)c(=O)c(C)c2C)cc(OC)c1CN1CCC2(CCN(c3ccc4c(c3)[C@H](C)N(C(=O)/C(C#N)=C/C(C)(C)C)CC4)C2)C1 (single isomer, unassigned) [Compound C52]
1.25 to 10	40 to 70	COc1cc(-c2cn(C)c(=O)c(C)c2C)cc(OC)c1CN1CCC(Cc2cccc3c2CCN(C(=O)/C(C#N)=C/C(C)(C)C)[C@H]3C)CC1 (single isomer, unassigned) [Compound C59, (E/Z)-2-(5-((1-(2,6-dimethoxy-4-(1,4,5-trimethyl-6-oxo-1,6-dihydropyridin-3-yl)benzyl)piperidin-4-yl)methyl)-1-methyl-1,2,3,4-tetrahydroisoquinoline-2-carbonyl)-4,4-dimethylpent-2-enenitrile]
1.25 to 10	70 to 75	COc1cc(-c2cn(C)c(=O)c(C)c2C)cc(OC)c1CN1CCC(Cc2cccc3c2CCN(C(=O)/C(C#N)=C/C(C)(C)CF)[C@H]3C)CC1 (single isomer, unassigned) [Compound C60, (E/Z)-2-(5-((1-(2,6dimethoxy-4-(1,4,5-trimethyl-6-oxo-1,6-dihydropyridin-3-yl)benzyl)piperidin-yl)methyl)-1-methyl-1,2,3,4-tetrahydroisoquinoline-2-carbonyl)-5-fluoro-4,4-dimethylpent-2-enenitrile]

Structure (SMILES)	DC50 [nM]	Dmax [%]
COc1cc(-c2cn(C)c(=O)c(C)c2C)cc(OC)c1CN1CC2CC(C1)N2Cc1ccc2c(c1)[C@H](C)N(C(=O)/C(C#N)=C/C(C)(C)C)CC2 (single isomer, unassigned) [Compound C63, (E/Z)-2-(7-((3-(2,6-dimethoxy-4-(1,4,5-trimethyl-6-oxo-1,6-dihydropyridin-3-yl)benzyl)-3,6-diazabicyclo[3.1.1]heptan-6-yl)methyl)-1-methyl-1,2,3,4-tetrahydroisoquinoline-2-carbonyl)-4,4-dimethylpent-2-enenitrile]	1.25 to 10	> 75
COc1cc(-c2cn(C)c(=O)c(C)c2C)cc(OC)c1CN1CC2CC(C1)N2Cc1ccc2c(c1)[C@@H](C)N(C(=O)/C(C#N)=C/C(C)(C)C)CC2 (single isomer, unassigned) [Compound C64, (E/Z)-2-(7-((3-(2,6-dimethoxy-4-(1,4,5-trimethyl-6-oxo-1,6-dihydropyridin-3-yl)benzyl)-3,6-diazabicyclo[3.1.1]heptan-6-yl)methyl)-1-methyl-1,2,3,4-tetrahydroisoquinoline-2-carbonyl)-4,4-dimethylpent-2-enenitrile]	25 to 1000	40 to 70
